Where two headings read alike, the source gives them in different places.
Tests used:
Assay type in all cases: biochemical
[1] = target: T1, KDM6A (UTX) (Homo sapiens, UniProt O15550); assay: Histone lysine demethylase AlphaLISA assay, KDM6A
T1 construct: KDM6A (UTX); BRIC; 919-1401; E. coli; host or cells: E. coli
Summary of the method: (§1)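 Compounds preincubated 10 min with each demethylase in Hepes buffer (pH 7.4-8.0) containing Tween-20, 0.1% BSA and 5 μM Fe(II); substrate then added, room-temperature reaction. Read-out by AlphaLISA acceptor and streptavidin donor beads after incubation in the dark.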

[2] = target: T2, PHF8 (KDM7) (Homo sapiens, UniProt Q9UPP1); assay: Histone lysine demethylase AlphaLISA assay, PHF8
T2 construct: KDM7 (PHF8); BRIC; 1-1322; Bac
T2 sequence (Q9UPP1 37-440 limits assumed): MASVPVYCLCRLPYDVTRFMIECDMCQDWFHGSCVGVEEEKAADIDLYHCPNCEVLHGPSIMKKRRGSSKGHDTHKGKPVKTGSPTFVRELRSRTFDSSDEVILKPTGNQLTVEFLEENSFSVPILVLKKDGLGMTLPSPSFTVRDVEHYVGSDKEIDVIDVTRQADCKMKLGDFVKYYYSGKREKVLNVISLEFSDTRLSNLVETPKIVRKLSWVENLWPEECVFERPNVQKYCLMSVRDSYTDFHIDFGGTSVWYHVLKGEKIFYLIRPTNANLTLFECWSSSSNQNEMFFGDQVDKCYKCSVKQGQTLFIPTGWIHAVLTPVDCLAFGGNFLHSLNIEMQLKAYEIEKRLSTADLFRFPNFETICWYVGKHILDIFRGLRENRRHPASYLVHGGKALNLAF
Summary of the method: as §1

[3] = target: T3, KDM5B (PLU-1) (Homo sapiens, UniProt Q9UGL1); assay: Histone lysine demethylase AlphaLISA assay, KDM5B
T3 construct: BRIC; 1-809; E. coli; host or cells: E. coli
T3 sequence (Q9UGL1 1-809): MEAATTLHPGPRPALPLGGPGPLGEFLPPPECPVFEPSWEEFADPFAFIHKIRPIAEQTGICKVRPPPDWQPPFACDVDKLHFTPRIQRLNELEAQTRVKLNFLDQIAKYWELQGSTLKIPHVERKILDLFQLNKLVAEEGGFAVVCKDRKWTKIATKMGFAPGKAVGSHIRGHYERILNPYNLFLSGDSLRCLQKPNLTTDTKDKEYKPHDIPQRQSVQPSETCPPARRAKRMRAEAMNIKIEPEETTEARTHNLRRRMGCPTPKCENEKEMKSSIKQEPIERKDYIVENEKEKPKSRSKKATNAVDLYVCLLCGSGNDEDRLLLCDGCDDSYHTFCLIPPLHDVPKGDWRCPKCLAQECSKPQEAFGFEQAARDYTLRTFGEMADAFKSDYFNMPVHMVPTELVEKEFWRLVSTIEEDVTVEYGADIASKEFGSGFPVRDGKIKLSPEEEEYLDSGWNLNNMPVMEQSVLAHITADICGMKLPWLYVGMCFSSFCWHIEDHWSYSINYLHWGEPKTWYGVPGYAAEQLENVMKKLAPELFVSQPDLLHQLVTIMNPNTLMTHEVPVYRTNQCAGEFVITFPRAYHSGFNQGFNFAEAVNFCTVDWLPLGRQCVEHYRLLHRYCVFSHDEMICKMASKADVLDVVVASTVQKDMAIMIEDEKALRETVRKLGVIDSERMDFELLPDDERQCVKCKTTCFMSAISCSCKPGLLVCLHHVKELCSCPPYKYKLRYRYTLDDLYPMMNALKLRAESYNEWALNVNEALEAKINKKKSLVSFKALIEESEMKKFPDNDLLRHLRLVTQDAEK
Summary of the method: as §1

[4] = target: T4, KDM4C (JMJD2C) (Homo sapiens, UniProt Q9H3R0); assay: Histone lysine demethylase AlphaLISA assay, KDM4C
T4 construct: KDM4C; BRIC, Denmark; 1-349; E. coli; host or cells: E. coli
T4 sequence (Q9H3R0 1-349): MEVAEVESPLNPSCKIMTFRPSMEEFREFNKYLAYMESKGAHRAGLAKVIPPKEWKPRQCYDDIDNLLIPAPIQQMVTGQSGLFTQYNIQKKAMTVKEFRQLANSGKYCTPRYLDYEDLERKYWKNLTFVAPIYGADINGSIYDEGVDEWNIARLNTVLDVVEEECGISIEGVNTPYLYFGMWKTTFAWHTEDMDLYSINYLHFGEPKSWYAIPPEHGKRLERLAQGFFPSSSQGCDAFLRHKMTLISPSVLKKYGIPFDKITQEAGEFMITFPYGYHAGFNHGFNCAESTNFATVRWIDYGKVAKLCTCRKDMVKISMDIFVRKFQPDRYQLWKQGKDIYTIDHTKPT
Summary of the method: as §1

[5] = target: T5, KDM2B (FBXL10) (Homo sapiens, UniProt Q8NHM5); assay: Histone lysine demethylase AlphaLISA assay, KDM2B
T5 construct: KDM2B; BPS,; 1-650; Bac; purchased BPS Bioscience, US; host or cells: baculovirus system
T5 sequence (Q8NHM5 1-650): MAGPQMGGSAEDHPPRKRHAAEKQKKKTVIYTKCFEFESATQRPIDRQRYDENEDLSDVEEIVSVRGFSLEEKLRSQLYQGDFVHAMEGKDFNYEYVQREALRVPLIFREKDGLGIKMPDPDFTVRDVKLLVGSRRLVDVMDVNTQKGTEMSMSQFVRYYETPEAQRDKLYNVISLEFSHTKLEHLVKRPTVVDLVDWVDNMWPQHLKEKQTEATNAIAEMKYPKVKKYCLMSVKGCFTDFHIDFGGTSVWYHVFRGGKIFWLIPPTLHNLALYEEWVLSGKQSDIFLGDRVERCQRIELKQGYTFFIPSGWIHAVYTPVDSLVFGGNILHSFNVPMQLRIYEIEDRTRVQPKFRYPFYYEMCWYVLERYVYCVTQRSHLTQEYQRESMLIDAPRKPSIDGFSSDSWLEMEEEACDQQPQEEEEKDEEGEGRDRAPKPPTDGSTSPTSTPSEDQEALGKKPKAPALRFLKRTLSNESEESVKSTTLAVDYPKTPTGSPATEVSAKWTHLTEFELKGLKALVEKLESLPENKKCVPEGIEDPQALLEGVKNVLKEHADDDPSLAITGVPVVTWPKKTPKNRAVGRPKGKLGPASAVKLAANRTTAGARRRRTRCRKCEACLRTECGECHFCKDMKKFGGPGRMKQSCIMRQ
Summary of the method: as §1

[6] = AlphaLISA assay, read-out: HDME Inhibition KDM6A (IC50)
[7] = AlphaLISA, in vitro, read-out: HDME Inhibition KDM6A
[8] = AlphaLISA, in vitro, read-out: HDME Inhibition PHF8
[9] = AlphaLISA assay, read-out: HDME Inhibition KDM5B (IC50)
[10] = AlphaLISA, in vitro, read-out: HDME Inhibition KDM5B
[11] = AlphaLISA assay, read-out: HDME Inhibition KDM4C (IC50)
[12] = AlphaLISA, in vitro, read-out: HDME Inhibition KDM4C
[13] = AlphaLISA, in vitro, read-out: HDME Inhibition KDM2B
[14] = AlphaLISA assay, read-out: HDME Inhibition PHF8 (IC50)
[15] = AlphaLISA assay, read-out: HDME Inhibition KDM2B (IC50)

T1 sequence (O15550 919-1401): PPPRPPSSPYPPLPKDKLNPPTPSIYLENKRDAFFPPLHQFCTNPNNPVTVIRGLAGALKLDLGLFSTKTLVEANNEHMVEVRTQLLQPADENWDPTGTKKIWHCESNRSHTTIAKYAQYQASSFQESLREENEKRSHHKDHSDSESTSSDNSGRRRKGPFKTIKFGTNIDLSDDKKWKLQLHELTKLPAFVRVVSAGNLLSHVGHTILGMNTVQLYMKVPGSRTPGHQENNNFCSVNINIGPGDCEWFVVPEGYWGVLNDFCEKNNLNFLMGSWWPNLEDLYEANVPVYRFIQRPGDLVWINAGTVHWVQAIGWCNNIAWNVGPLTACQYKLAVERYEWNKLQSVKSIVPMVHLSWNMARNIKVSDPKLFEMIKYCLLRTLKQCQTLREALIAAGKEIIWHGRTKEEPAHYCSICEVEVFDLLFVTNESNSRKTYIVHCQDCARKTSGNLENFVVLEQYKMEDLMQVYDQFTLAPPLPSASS

| IC50 [1, 6] | IC50 [1, 7] | IC50 [2, 8] | IC50 [3, 9] | IC50 [3, 10] | IC50 [4, 11] | IC50 [4, 12] | IC50 [5, 13] | IC50 [2, 14] | IC50 [3] | IC50 [5, 15] | Structure (SMILES) |
| --- | --- | --- | --- | --- | --- | --- | --- | --- | --- | --- | --- |
| > 10 µM | > 10 µM | 2.22 µM | > 10 µM | > 10 µM | > 10 µM | > 10 µM | 0.703 µM | – | – | – | CCC(C)Cc1cnc(CNCc2cc(C(=O)O)cc(C)n2)n1Cc1ccc(F)cc1 (stereo not drawn) [Compound 30, 2-{[({1-[(4-fluorophenyl)methyl]-5-(2-methylbutyl)-1H-imidazol-2-yl}methyl)amino]methyl}-6-methylpyridine-4-carboxylic acid] |
| > 10 µM | > 10 µM | > 10 µM | – | – | – | 0.299 µM | > 10 µM | > 10 µM | 0.714 µM | > 10 µM | CCC(C)c1cnc(CNCc2cc(C(=O)O)cc(C)n2)n1Cc1ccc(F)cc1 (stereo not drawn) [Compound 9, 2-[({[5-(butan-2-yl)-1-[(4-fluorophenyl)methyl]-1H-imidazole-2-yl]methyl}amino)methyl]-6-methyl-pyridine-4-carboxylic acid] |
| > 10 µM | > 10 µM | > 10 µM | > 10 µM | > 10 µM | > 10 µM | > 10 µM | > 10 µM | > 10 µM | – | > 10 µM | COc1ccc(CCn2ccnc2CNCc2cc(C(=O)O)cc(C)n2)cc1 [Compound 17, 2-{[({1-[2-(4-methoxyphenyl)ethyl]-1H-imidazol-2-yl}methyl)amino]methyl}-6-methylpyridine-4-carboxylic acid] |
| > 10 µM | > 10 µM | 5.6 µM | > 10 µM | > 10 µM | > 10 µM | > 10 µM | 3.23 µM | – | – | – | CCCCCCc1cccnc1CCNCc1cc(C(=O)O)cc(C)n1 [Compound 14, 2-({[2-(3-hexylpyridin-2-yl)ethyl]amino}methyl)-6-methylpyridine-4-carboxylic acid] |
| > 10 µM | > 10 µM | > 10 µM | > 10 µM | > 10 µM | > 10 µM | > 10 µM | 1.24 µM | > 10 µM | – | – | Cc1cc(C(=O)O)cc(CNCCc2ncccc2-c2ccsc2)n1 [Compound 34, 2-methyl-6-[({2-[3-(thiophen-3-yl)pyridin-2-yl]ethyl}amino)methyl]pyridine-4-carboxylic acid] |
| > 10 µM | > 10 µM | > 10 µM | > 10 µM | > 10 µM | > 10 µM | > 10 µM | 3.97 µM | > 10 µM | – | – | Cc1cc(C(=O)O)cc(CNCc2ncc(CCCc3ccccc3)n2Cc2ccc(F)cc2)n1 [Compound 31, 2-{[({1-[(4-fluorophenyl)methyl]-5-(3-phenylpropyl)-1H-imidazol-2-yl}methyl)amino]methyl}-6-methylpyridine-4-carboxylic acid] |
| > 10 µM | > 10 µM | 0.908 µM | > 10 µM | > 10 µM | > 10 µM | > 10 µM | 0.248 µM | – | – | – | CSc1nnc(CNCc2cc(C(=O)O)cc(C)n2)n1Cc1ccc(F)cc1 [Compound 36, 2-{[({4-[(4-fluorophenyl)methyl]-5-(methylsulfanyl)-4H-1,2,4-triazol-3-yl}methyl)amino]methyl}-6-methylpyridine-4-carboxylic acid] |
